Values of other authors, collected in article PMC7311426, “An amphipathic peptide with antibiotic activity against multidrug-resistant Gram-negative bacteria” (Nature Communications, 2020).

Tested on: E. coli (AID#172 & ATCC 25922)
Details: E. coli ATCC 25922; quality control range printed beside agar dilution MIC; cited from earlier work
From the text: Supplement 41467_2020_16950_MOESM9_ESM.xlsx, sheet "Supp table 9" | column: Agar (Noble) Dilution MIC Results for AA139 and Comparators

Q: For `C[C@H]1COc2c(N3CCN(C)CC3)c(F)cc3c(=O)c(C(=O)O)cn1c23` [LEV, levofloxacin, reference compound], which “MIC QC range” value is on record?
A: 8 to 60 ng/mL
